Measurements reported in patent US20230114728A1 (Venatorx Pharmaceuticals, Inc., priority 2019, published 2023).
Values after ≈ are worked out from the molar mass of the structure shown.

Legend:
Format in all cases: cell-based
N. gonorrhoeae WHO K = experiment: Liquid broth MIC in Fastidious broth; details: Neisseria gonorrhoeae, read-out: Minimum Inhibitory Concentration, N. gonorrhoeae WHO K
Outline: (§1)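 Mosaic-PBP2 strains grown 24 h on chocolate agar (36 °C, 5% CO2), then direct-suspended in saline and OD600-adjusted. Twofold compound dilutions in Fastidious broth inoculated at 5×10^5 CFU/mL and incubated ~24 h at 36 °C, 5% CO2. MIC read visually as lowest concentration with <10% growth versus full-growth wells.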

N. gonorrhoeae WHO G = experiment: Liquid broth MIC in Fastidious broth; details: Neisseria gonorrhoeae; N. gonorrhoeae strain WHO G; Fastidious broth; read-out: Minimum Inhibitory Concentration, N. gonorrhoeae WHO G
Outline: (§2)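 Colonies were swabbed from chocolate agar after 24 h growth and standardised by optical density at 600 nm. Compounds were serially diluted twofold in Fastidious broth, and bacteria added to give 5×10^5 CFU/mL. After about 24 h at 36 °C in 5% CO2, the lowest concentration allowing under 10% growth was taken as MIC.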

N. gonorrhoeae FA1090 = experiment: Liquid broth MIC in Fastidious broth; details: Neisseria gonorrhoeae; N. gonorrhoeae strain FA1090; Fastidious broth; read-out: Minimum Inhibitory Concentration, N. gonorrhoeae FA1090
Outline: as §2

N. gonorrhoeae H041 = experiment: Liquid broth MIC in Fastidious broth; details: Neisseria gonorrhoeae, H041, read-out: Minimum Inhibitory Concentration, N. gonorrhoeae H041
Outline: as §1

[1] = tested on: N. gonorrhoeae ATCC 49226; experiment: Liquid broth MIC in Fastidious broth; details: Neisseria gonorrhoeae, ATCC49226; N. gonorrhoeae strain ATCC 49226; Fastidious broth; read-out: Minimum Inhibitory Concentration, N. gonorrhoeae ATCC 49226
Outline: as §2

N. gonorrhoeae WHO L = experiment: Liquid broth MIC in Fastidious broth; details: Neisseria gonorrhoeae; N. gonorrhoeae strain WHO L; Fastidious broth; read-out: Minimum Inhibitory Concentration, N. gonorrhoeae WHO L
Outline: as §2

E. coli D22 = experiment: Broth microdilution MIC in CAMHB; details: Escherichia coli; E. coli D22 (hyper-permeable); MHB; read-out: Minimum Inhibitory Concentration, E. coli D22
Outline: (§3)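 CLSI broth microdilution in CAMHB: 2-fold compound dilutions inoculated at 2-8×10^5 CFU/mL from 3-5 h log-phase cultures. Incubated at 37 °C for 16-20 h (Enterobacteriaceae, Pseudomonas); MIC read visually as lowest concentration without growth. Strains include hyper-permeable and efflux-deficient mutants.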

E. coli AG100 = experiment: Broth microdilution MIC in CAMHB; details: Escherichia coli; E. coli AG100 (wild-type parent); MHB; read-out: Minimum Inhibitory Concentration, E. coli AG100
Outline: as §3

A. baumannii ATCC 19606 = experiment: Broth microdilution MIC in CAMHB; details: Acinetobacter baumannii, ATCC19606; MHB; read-out: Minimum Inhibitory Concentration, A. baumannii ATCC 19606
Outline: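 Per CLSI broth microdilution, colonies were grown 3-5 h at 37° C in cation-adjusted Mueller Hinton broth, then diluted to a starting inoculum of 2-8×10^5 CFU/mL against 2-fold serial compound dilutions. Plates were incubated 16-20 h at 37° C, and MIC was read visually as the lowest concentration with no growth.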

E. coli AG100A = experiment: Broth microdilution MIC in CAMHB; details: Escherichia coli, read-out: Minimum Inhibitory Concentration, E. coli AG100A
Outline: as §3

E. coli ATCC 25922 = experiment: Broth microdilution MIC in CAMHB; details: Escherichia coli, ATCC25922; E. coli ATCC 25922; MHB; read-out: Minimum Inhibitory Concentration, E. coli 25922
Outline: as §3

SMILES | MIC (N. gonorrhoeae WHO K) [µg/mL] | MIC (N. gonorrhoeae WHO G) [µg/mL] | MIC (N. gonorrhoeae FA1090) [µg/mL] | MIC (N. gonorrhoeae H041) [µg/mL] | MIC [1] [µg/mL] | MIC (N. gonorrhoeae WHO L) [µg/mL] | MIC (E. coli D22) [µg/mL] | MIC (E. coli AG100) [µg/mL] | MIC (A. baumannii ATCC 19606) [µg/mL] | MIC (E. coli AG100A) [µg/mL] | MIC (E. coli ATCC 25922) [µg/mL]
NCCN1CCN(C(=O)N[C@H](C(=O)N[C@H]2Cc3cccc(C(=O)O)c3OB2O)c2ccc(O)cc2F)C(=O)C1=O (single isomer, unassigned) [Example 88] | > 64 | 16 to 32 (≈ 28.7 to 57.4 µM) | 4 to 8 (≈ 7.18 to 14.4 µM) | > 64 | > 64 | > 64 | 32 to 64 (≈ 57.4 to 115 µM) | > 128 | > 128 | 32 to 64 (≈ 57.4 to 115 µM) | > 128
NCCN1CCN(C(=O)N[C@@H](C(=O)N[C@H]2Cc3cccc(C(=O)O)c3OB2O)c2ccc(O)cc2F)C(=O)C1=O (single isomer, unassigned) [Example 89] | > 64 | 4 to 8 (≈ 7.18 to 14.4 µM) | 1 to 2 (≈ 1.79 to 3.59 µM) | > 64 | 16 to 32 (≈ 28.7 to 57.4 µM) | > 64 | 8 to 16 (≈ 14.4 to 28.7 µM) | 32 to 64 (≈ 57.4 to 115 µM) | > 128 | 2 to 4 (≈ 3.59 to 7.18 µM) | 32 to 64 (≈ 57.4 to 115 µM)
CCN1CCN(C(=O)N[C@@H](C(=O)N[C@H]2Cc3cccc(C(=O)O)c3OB2O)c2cc(Cl)c(O)cc2Cl)C(=O)C1=O (single isomer, unassigned) [Example 91] | 16 to 32 (≈ 27 to 53.9 µM) | 1 to 2 (≈ 1.69 to 3.37 µM) | 0.25 to 0.5 (≈ 0.421 to 0.843 µM) | 16 to 32 (≈ 27 to 53.9 µM) | 16 to 32 (≈ 27 to 53.9 µM) | > 64 | 2 to 4 (≈ 3.37 to 6.74 µM) | 8 to 16 (≈ 13.5 to 27 µM) | > 128 | 2 to 4 (≈ 3.37 to 6.74 µM) | 32 to 64 (≈ 53.9 to 108 µM)
CCN1CCN(C(=O)N[C@H](C(=O)N[C@H]2Cc3cccc(C(=O)O)c3OB2O)c2cc(Cl)c(O)cc2Cl)C(=O)C1=O (single isomer, unassigned) [Example 92] | > 64 | > 64 | 16 to 32 (≈ 27 to 53.9 µM) | > 64 | > 64 | > 64 | > 128 | > 128 | > 128 | > 128 | > 128
CCN1CCN(C(=O)NC(C(=O)N[C@H]2Cc3ccc(F)c(C(=O)O)c3OB2O)c2ccc(C(=O)O)cc2)C(=O)C1=O (stereo partly drawn) [Example 15, (3R)-3-(2-(4-carboxyphenyl)-2-(4-ethyl-2,3-dioxopiperazine-1-carboxamido)acetamido)-7-fluoro-2-hydroxy-3,4-dihydro-2H-benzo[e][1,2]oxaborinine-8-carboxylic acid] | 4 to 8 (≈ 7.01 to 14 µM) | 4 to 8 (≈ 7.01 to 14 µM) | 0.25 to 0.5 (≈ 0.438 to 0.877 µM) | 4 to 8 (≈ 7.01 to 14 µM) | 4 to 8 (≈ 7.01 to 14 µM) | > 64 | 8 to 16 (≈ 14 to 28.1 µM) | > 128 | > 128 | 32 to 64 (≈ 56.1 to 112 µM) | > 128
CCN1CCN(C(=O)NC(C(=O)N[C@H]2Cc3cccc(C(=O)O)c3OB2O)c2ccc(O)c(NC(C)=O)c2)C(=O)C1=O (stereo partly drawn) [Example 17, (3R)-3-(2-(3-acetamido-4-hydroxyphenyl)-2-(4-ethyl-2,3-dioxopiperazine-1-carboxamido)acetamido)-2-hydroxy-3,4-dihydro-2H-benzo[e][1,2]oxaborinine-8-carboxylic acid] | > 64 | > 64 | 1 to 2 (≈ 1.72 to 3.44 µM) | > 64 | > 64 | > 64 | 2 to 4 (≈ 3.44 to 6.88 µM) | > 128 | > 128 | 8 to 16 (≈ 13.8 to 27.5 µM) | > 128
CCN1CCN(C(=O)NC(C(=O)N[C@H]2Cc3ccc(F)c(C(=O)O)c3OB2O)c2nc(N)sc2F)C(=O)C1=O (stereo partly drawn) [Example 18, (3R)-3-(2-(2-amino-5-fluorothiazol-4-yl)-2-(4-ethyl-2,3-dioxopiperazine-1-carboxamido)acetamido)-7-fluoro-2-hydroxy-3,4-dihydro-2H-benzo[e][1,2]oxaborinine-8-carboxylic acid] | 16 to 32 (≈ 28.3 to 56.5 µM) | 4 to 8 (≈ 7.06 to 14.1 µM) | 1 to 2 (≈ 1.77 to 3.53 µM) | 16 to 32 (≈ 28.3 to 56.5 µM) | 4 to 8 (≈ 7.06 to 14.1 µM) | 16 to 32 (≈ 28.3 to 56.5 µM) | 2 to 4 (≈ 3.53 to 7.06 µM) | 32 to 64 (≈ 56.5 to 113 µM) | > 128 | 2 to 4 (≈ 3.53 to 7.06 µM) | 8 to 16 (≈ 14.1 to 28.3 µM)
O=C(NC(C(=O)N[C@H]1Cc2ccc(F)c(C(=O)O)c2OB1O)c1ncc(O)cc1F)c1ccnc(F)c1 (stereo partly drawn) [Example 53, (3R)-7-fluoro-3-(2-(3-fluoro-5-hydroxypyridin-2-yl)-2-(2-fluoroisonicotinamido)acetamido)-2-hydroxy-3,4-dihydro-2H-benzo[e][1,2]oxaborinine-8-carboxylic acid] | > 64 | > 64 | 4 to 8 (≈ 7.75 to 15.5 µM) | > 64 | > 64 | > 64 | > 128 | > 128 | – | > 128 | > 128
